From patent US10208033B2, “β-carboline, dihydro-β-carboline and tetrahydro-β-carboline alkaloid derivatives and preparation methods same and use in aspects of preventing and treating plant viruses, fungicides and insecticides” (NANKAI UNIVERSITY, priority 2013, dated 2019)
Structures can show the parent of a compound that is named as a salt. Where two headings read alike, the source gives them in different places.

Columns and labels:
[1] = system: tobacco mosaic virus (TMV); assay: Anti-TMV in vivo therapeutic effect; set-up: species or system tobacco mosaic virus (host Nicotiana tabacum L.cv.Xanthi NN)
[2] = system: potato late blight; assay: microbe, parasite or virus in culture; assay type: cell-based
[3] = system: cucumber fusarium wilt; assay: Fungicidal (bactericidal) activity in vitro, PDA colony diameter; assay type: cell-based; conditions: 50 mg/kg
[4] = system: Alternaria solani; assay: as above; assay type: cell-based; conditions: 50 mg/kg
[5] = system: Phytophthora capsici; assay: as above; assay type: cell-based; conditions: 50 mg/kg
[6] = system: mosquito larvae; assay: whole plant or invertebrate
Description: Experimental method of mosquito larvae: culex pipiens pallens, a normal colony raised indoors. Weigh about 5 mg of the compound for test, put it in a penicillin vial, add 5 mL of acetone (or an appropriate solvent), and shake and dissolve it to obtain a 1000 ppm mother solution. Pipette 0.5 mL of the mother solution, add it to a 100 mL beaker filled with 89.9 mL of water, select 10 mosquito larvae at the beginning of the fourth instar, and pour them to a beaker together with 10 mL of feeding solution. The concentration of the drug solution is 5 ppm. […] Use an aqueous solution containing 0.5 mL of test solvent as a blank.

[7] = system: Botrytis cinerea; assay: Fungicidal (bactericidal) activity in vitro, PDA colony diameter; assay type: cell-based; conditions: 50 mg/kg
[8] = system: armyworms; assay type: in vivo; conditions: concentration 600 mg/kg
[9] = system: corn borers
[10] = system: Macrophoma kawatsukai; assay: Fungicidal (bactericidal) activity in vitro, PDA colony diameter; assay type: cell-based; conditions: 50 mg/kg
[11] = system: tobacco mosaic virus (TMV); assay: Anti-TMV in vitro effect (half-leaf soaking); assay type: cell-based, tobacco mosaic virus (host Nicotiana tabacum L.cv.Xanthi NN)
[12] = system: Rhizoctonia solani; assay: Fungicidal (bactericidal) activity in vitro, PDA colony diameter; assay type: cell-based; conditions: 50 mg/kg
[13] = system: Colletotrichum orbiculare; assay: as above; assay type: cell-based; conditions: 50 mg/kg
[14] = system: cotton bollworms; assay: whole plant or invertebrate
Description: Experimental method of cotton bollworms: feed and drug mixing method: measure 3 mL of prepared solution and add it to about 27 g of newly prepared feed, thereby obtaining needed concentration through dilution by 10 times.

[15] = system: Bipolaria maydis; assay: organism not typed; assay type: cell-based; conditions: 50 mg/kg
[16] = system: Fusarium fujikuroi; assay: Fungicidal (bactericidal) activity in vitro, PDA colony diameter; assay type: cell-based
[17] = system: Fusarium graminearumt; assay: microbe, parasite or virus in culture; assay type: cell-based; conditions: 50 mg/kg
[18] = system: Rhizoctonia cereali; assay: Fungicidal (bactericidal) activity in vitro, PDA colony diameter; assay type: cell-based; conditions: 50 mg/kg
[19] = system: tobacco mosaic virus (TMV); assay: Anti-TMV in vivo protective effect; set-up: species or system tobacco mosaic virus (host Nicotiana tabacum L.cv.Xanthi NN)
[20] = system: Cercospora arachidicola; assay: Fungicidal (bactericidal) activity in vitro, PDA colony diameter; assay type: cell-based
[21] = system: Sclerotinia scleotiorum; assay: as above; assay type: cell-based; conditions: 50 mg/kg
[22] = system: tobacco mosaic virus (TMV); assay: Anti-TMV in vivo inactivation; set-up: species or system tobacco mosaic virus (host Nicotiana tabacum L.cv.Xanthi NN)

SMILES | Relative inhibition rate (%) In vivo therapy ([1]; treatment dose 100 μg/mL) | Relative inhibition rate (%) In vivo therapy ([1]; treatment dose 500 μg/mL) | Bactericidal activity (%) Cucumber fusarium wilt [3] | Bactericidal activity (%) Alternaria solani [4] | Bactericidal activity (%) Phytophthora capsici [5] | Bactericidal activity (%) Botrytis cinerea [7] | Armyworm Mortality (%) [8] | Bactericidal activity (%) Macrophoma kawatsukai [10] | Relative inhibition rate (%) In vitro activity ([11]; treatment dose 100 μg/mL) | Relative inhibition rate (%) In vitro activity ([11]; treatment dose 500 μg/mL) | Bactericidal activity (%) Rhizoctonia solani [12] | Bactericidal activity (%) Colletotrichum orbiculare [13] | Bactericidal activity (%) Bipolaria maydis [15] | Bactericidal activity (%) Fusarium graminearumt [17] | Bactericidal activity (%) Rhizoctonia cereali [18] | Relative inhibition rate (%) In vivo protection ([19]; treatment dose 100 μg/mL) | Relative inhibition rate (%) In vivo protection ([19]; treatment dose 500 μg/mL) | Bactericidal activity (%) Sclerotinia scleotiorum [21] | Relative inhibition rate (%) In vivo inactivation ([22]; treatment dose 100 μg/mL) | Relative inhibition rate (%) In vivo inactivation ([22]; treatment dose 500 μg/mL) | also measured
CC(=O)Oc1ccc2c(c1)[nH]c1c(C)nccc12 [Ia-7, Acetate (1-methylpyridino [3,4-b]indol-7)-ester] | 0% | 24.1% | 14.3% | 33.3% | 18.2% | 36.4% | 35% | 5.9% | 0% | 30% | 0.0% | 33.3% | 21.1% | 35.7% | 62.5% | 0% | 27.2% | 76.0% | 0% | 20.3% | Bactericidal activity (%) potato late blight ([2]; 50 mg/kg): 20.0%; Mosquito larvae Mortality (%) ([6]; concentration 10 mg/kg, 24 h): 65%; Corn borer Mortality (%) ([9]; concentration 600 mg/kg): 25%; Cotton bollworm Mortality (%) ([14]; concentration 600 mg/kg): 30%; Bactericidal activity (%) Fusarium fujikuroi [16]: 35.7%; Bactericidal activity (%) Cercospora arachidicola [20]: 35.7%
CCOC(=O)c1cc2c([nH]c3ccccc32)c(C)n1 [Ia-10, 1-methyl-pyridino [3,4-b] indol-3-ethyl formate] | 0% | 28.8% | 23.8% | 61.1% | 51.5% | 13.6% | 30% | 52.9% | 0% | 33.3% | 39.3% | 47.6% | 36.8% | 71.4% | 78.1% | 0% | 23.7% | 68.0% | 0% | 26.3% | Bactericidal activity (%) potato late blight ([2]; 50 mg/kg): 35.0%; Mosquito larvae Mortality (%) ([6]; concentration 10 mg/kg, 24 h): 65%; Corn borer Mortality (%) ([9]; concentration 600 mg/kg): 30%; Cotton bollworm Mortality (%) ([14]; concentration 600 mg/kg): 40%; Bactericidal activity (%) Fusarium fujikuroi ([16]; 50 mg/kg): 35.7%; Bactericidal activity (%) Cercospora arachidicola ([20]; 50 mg/kg): 35.7%
Cc1nc(/C=C/C(=O)O)cc2c1[nH]c1ccccc12 [Ia-14, (E)-3-(1-methyl-pyridino [3,4-b]indol-3)-acrylic acid] | 0% | 21.5% | 23.1% | 10.5% | 18.8% | 12.1% | 25% | 47.6% | 0% | 25.8% | 39.5% | 25.0% | 22.7% | 14.3% | 63.2% | 0% | 28.4% | 9.8% | 0% | 18.4% | Bactericidal activity (%) potato late blight [2]: 22.7%; Mosquito larvae Mortality (%) ([6]; concentration 10 mg/kg, 24 h): 35%; Corn borer Mortality (%) ([9]; concentration 600 mg/kg): 20%; Cotton bollworm Mortality (%) ([14]; concentration 600 mg/kg): 30%; Bactericidal activity (%) Fusarium fujikuroi ([16]; 50 mg/kg): 28.6%; Bactericidal activity (%) Cercospora arachidicola ([20]; 50 mg/kg): 84.6%
O=C(O)/C=C/c1cc2c([nH]c3ccccc32)c(-c2cccs2)n1 [Ia-15, (E)-3-(1-(thiophene-2)-pyridino [3,4-b]indol-3)-acrylic acid] | 10% | 36.2% | 33.3% | 22.2% | 66.7% | 68.2% | 15% | 58.8% | 0% | 40.2% | 17.9% | 66.7% | 73.7% | 78.6% | 81.3% | 10.2% | 35.1% | 76.0% | 13.5% | 39.6% | Bactericidal activity (%) potato late blight [2]: 55.0%; Mosquito larvae Mortality (%) ([6]; concentration 10 mg/kg, 24 h): 35%; Corn borer Mortality (%) ([9]; concentration 600 mg/kg): 5%; Cotton bollworm Mortality (%) ([14]; concentration 600 mg/kg): 15%; Bactericidal activity (%) Fusarium fujikuroi ([16]; 50 mg/kg): 64.3%; Bactericidal activity (%) Cercospora arachidicola ([20]; 50 mg/kg): 21.4%
O=C(O)/C=C/c1cc2c([nH]c3ccccc32)c(-c2cccnc2)n1 [Ia-16, (E)-3-(1-(pyridine-3)-pyridino [3,4-b]indol-3)-acrylic acid] | 0% | 20.2% | 4.8% | 22.2% | 9.1% | 4.6% | 10% | 23.5% | 0% | 17.8% | 0.0% | 23.8% | 15.8% | 42.9% | 53.1% | 0% | 21.3% | 76.0% | 0% | 26.5% | Bactericidal activity (%) potato late blight [2]: 15.0%; Mosquito larvae Mortality (%) ([6]; in vivo): 20%; Corn borer Mortality (%) ([9]; in vivo): 10%; Cotton bollworm Mortality (%) ([14]; in vivo): 5%; Bactericidal activity (%) Fusarium fujikuroi ([16]; 50 mg/kg): 28.6%; Bactericidal activity (%) Cercospora arachidicola ([20]; 50 mg/kg): 0.0%
CCOC(=O)[C@@H]1Cc2c([nH]c3ccccc23)CN1 [Ib-7, (S)-2,3,4,9-tetrahydropyridino [3,4-b] indol-3-ethyl formate] | 15.9% | 30.7% | 33.3% | 50.0% | 66.7% | 50.0% | 5% | 64.7% | 12.3% | 26.9% | 42.9% | 47.6% | 42.1% | 42.9% | 78.1% | 16.2% | 40.1% | 60.0% | 19.3% | 36.5% | Bactericidal activity (%) potato late blight [2]: 40.0%; Mosquito larvae Mortality (%) ([6]; concentration 10 mg/kg, 24 h): 15%; Corn borer Mortality (%) ([9]; concentration 600 mg/kg): 5%; Cotton bollworm Mortality (%) ([14]; concentration 600 mg/kg): 20%; Bactericidal activity (%) Fusarium fujikuroi ([16]; 50 mg/kg): 64.3%; Bactericidal activity (%) Cercospora arachidicola ([20]; 50 mg/kg): 42.9%
